“Also recorded” adds a separate entry of the source.
Experiments:
[1] = system: tumor cells; details: cited from earlier work
[2] = system: PARP; details: cited from earlier work
[3] = target: T1, purified recombinant human PARP (Homo sapiens, UniProt P09874); assay: PARP enzyme assay, [3H]NAD incorporation; assay type: biochemical; details: 25° C., 15 minutes; PARP inhibition; read-out: Approximate IC50's
T1 construct: purchased Trevigen (Gaithersburg, Md.)
Experimental: The reaction was initiated by incubating the mixture at 25° C. After 15 minutes' incubation, the reaction was terminated by adding 500 microliters of ice cold 20% (w/v) trichloroacetic acid. The precipitate formed was transferred onto a glass fiber filter (Packard Unifilter-GF/B) and washed three times with ethanol. After the filter was dried, the radioactivity was determined by scintillation counting.

[4] = system: cell viability, glucose metabolism, and DNA synthesis; details: cited from earlier work
[5] = system: endotoxic shock; details: in vivo; cited from earlier work
[6] = system: focal cerebral ischemia; assay: Focal cerebral ischemia (distal MCA cauterization with bilateral temporary CCA occlusion), infarct; assay type: in vivo, male Long-Evans rats; details: for cross-sectional infarct area curve (in words): FIG. 1
Experimental: (§1) Focal cerebral ischemia was produced by cauterization of the right distal MCA (middle cerebral artery) with bilateral temporary common carotid artery occlusion in male Long-Evans rats for 90 minutes. All procedures performed on the animals were approved by the University Institutional Animal Care and Use Committee of the University of Pennsylvania. A total of 42 rats (weights: 230-340 g) obtained from Charles River were used in this study. The animals fasted overnight with free access to water prior to the surgical procedure.
(§2) Two hours prior to MCA occlusion, varying amounts (control, n=14; 5 mg/kg, n=7; 10 mg/kg, n=7; 20 mg/kg, n=7; and 40 mg/kg, n=7) of the compound, 3,4-dihydro-5-[4-(1-piperidinyl)-butoxy]-1(2H)-isoquinolinone ("DPQ") were dissolved in dimethyl sulfoxide (DMSO) using a sonicator. A volume of 1.28 ml/kg of the resulting solution was injected intraperitoneally into fourteen rats.
(§3) The rats were then anesthetized with halothane (4% for induction and 0.8%-1.2% for the surgical procedure) in a mixture of 70% nitrous oxide and 30% oxygen. The body temperature was monitored by a rectal probe and maintained at 37.5±0.5° C. with a heating blanket regulated by a homeothermic blanket control unit (Harvard Apparatus Limited, Kent, U.K.). A catheter (PE-50) was placed into the tail artery, and arterial pressure was continuously monitored and recorded on a Grass polygraph recorder (Model 7D, Grass Instruments, Quincy, Mass.). Samples for blood gas analysis (arterial pH, PaO2 and PaCO2) were also taken from the tail artery catheter and measured with a blood gas analyzer (ABL 30, Radiometer, Copenhagen, Denmark). Arterial blood samples were obtained 30 minutes after MCA occlusion.
The head of the animal was positioned in a stereotaxic frame, and a right parietal incision between the right lateral canthus and the external auditory meatus was made. Using a dental drill constantly cooled with saline, a 3 mm burr hole was prepared over the cortex supplied by the right MCA, 4 mm lateral to the sagittal suture and 5 mm caudal to the coronal suture. The dura mater and a thin inner bone layer were kept, care being taken to position the probe over a tissue area devoid of large blood vessels. The flow probe (tip diameter of 1 mm, fiber separation of 0.25 mm) was lowered to the bottom of the cranial burr hole using a micromanipulator. The probe was held stationary by a probe holder secured to the skull with dental cement. The microvascular blood flow in the right parietal cortex was continuously monitored with a laser Doppler flowmeter (FloLab, Moor, Devon, U.K., and Periflux 4001, Perimed, Stockholm, Sweden).
Focal cerebral ischemia was produced by cauterization of the distal portion of the right MCA with bilateral temporary common carotid artery (CCA) occlusion by the procedure of Chen et al., "A Model of Focal Ischemic Stroke in the Rat: Reproducible Extensive Cortical Infarction", Stroke 17:738-43 (1986) and/or Liu et al., "Polyethylene Glycol-conjugated Superoxide Dismutase and Catalase Reduce Ischemic Brain Injury", Am. J. Physiol. 256:H589-93 (1989), both of which are hereby incorporated by reference.
Specifically, bilateral CCA's were isolated, and loops made from polyethylene (PE-10) catheter were carefully passed around the CCA's for later remote occlusion. […]

[7] = Arterial blood gases, pH and MABP in focal cerebral ischemia rats; assay type: in vivo, male Long-Evans rats; details: for MABP Ischemia: during occlusion; for MABP Steady State: just prior to occlusion
Experimental: as §1, §2, §3
A "steady state" MABP was taken following completion of the surgical reparation, just prior to occlusion; an "ischemia" MABP was taken as the average MABP during occlusion.

[8] = system: human fibroblast cells (W138 or BJ); assay: Extending proliferative capacity and lifespan of cells; assay type: cell-based
Experimental: At the time of subdivision, the media is aspirated, and the cells rinsed with phosphate buffer saline (PBS) and then trypsinized. The cells are counted with a Coulter counter and plated at a density of 10^5 cells per cm^2 in 6-well tissue culture plates in DMEM/199 medium supplemented with 10% bovine calf serum and varying amounts (0.10 μM, and 1 mM: from a 100× stock solution in DMEM/M199 medium) of a PARP inhibitor of Formula I as disclosed herein. This process is repeated every 7 days until the cell appear to stop dividing. The untreated (control) cells reach senescence and stop dividing after about 40 days in culture. […] The cells treated with 1 mM 3-AB will still divide after 60 days in culture.

[9] = system: heart ischemia and reperfusion; details: cited from earlier work
[10] = system: colitis; details: rat, in vivo; cited from earlier work
[11] = system: septic shock mortality; assay: Septic shock assay (LPS plus galactosamine); assay type: in vivo, C57/BL male mice; details: 60, 20, 6 and 2 mg/kg daily IP for three days; LPS plus galactosamine challenge
Experimental: Groups of 10 C57/BL male mice weighing 18 to 20 g were administered a test compound, 1-carboxynaphthalene-1-carboxamide at the doses of 60, 20, 6 and 2 mg/kg, daily, by intraperitoneal (IP) injection for three consecutive days. Each animal was first challenged with lipopolysaccharide (LPS, from E. coli, LD100 of […] IV) plus galactosamine (20 mg/animal IV). The first dose of test compound in a suitable vehicle was given 30 minutes after challenge, and the second and third doses were given 24 hours later on day 2 and day 3 respectively, with only the surviving animals receiving the second or third dose of the test compound. Mortality was recorded every 12 hours after challenge for the three-day testing period. 1-Carboxy-naphthalene-1-carboxamide provided a protection against mortality from septic shock of about 40%.

[12] = dose of acetanilid given to a person; cited from earlier work

T1 sequence (P09874 whole entry): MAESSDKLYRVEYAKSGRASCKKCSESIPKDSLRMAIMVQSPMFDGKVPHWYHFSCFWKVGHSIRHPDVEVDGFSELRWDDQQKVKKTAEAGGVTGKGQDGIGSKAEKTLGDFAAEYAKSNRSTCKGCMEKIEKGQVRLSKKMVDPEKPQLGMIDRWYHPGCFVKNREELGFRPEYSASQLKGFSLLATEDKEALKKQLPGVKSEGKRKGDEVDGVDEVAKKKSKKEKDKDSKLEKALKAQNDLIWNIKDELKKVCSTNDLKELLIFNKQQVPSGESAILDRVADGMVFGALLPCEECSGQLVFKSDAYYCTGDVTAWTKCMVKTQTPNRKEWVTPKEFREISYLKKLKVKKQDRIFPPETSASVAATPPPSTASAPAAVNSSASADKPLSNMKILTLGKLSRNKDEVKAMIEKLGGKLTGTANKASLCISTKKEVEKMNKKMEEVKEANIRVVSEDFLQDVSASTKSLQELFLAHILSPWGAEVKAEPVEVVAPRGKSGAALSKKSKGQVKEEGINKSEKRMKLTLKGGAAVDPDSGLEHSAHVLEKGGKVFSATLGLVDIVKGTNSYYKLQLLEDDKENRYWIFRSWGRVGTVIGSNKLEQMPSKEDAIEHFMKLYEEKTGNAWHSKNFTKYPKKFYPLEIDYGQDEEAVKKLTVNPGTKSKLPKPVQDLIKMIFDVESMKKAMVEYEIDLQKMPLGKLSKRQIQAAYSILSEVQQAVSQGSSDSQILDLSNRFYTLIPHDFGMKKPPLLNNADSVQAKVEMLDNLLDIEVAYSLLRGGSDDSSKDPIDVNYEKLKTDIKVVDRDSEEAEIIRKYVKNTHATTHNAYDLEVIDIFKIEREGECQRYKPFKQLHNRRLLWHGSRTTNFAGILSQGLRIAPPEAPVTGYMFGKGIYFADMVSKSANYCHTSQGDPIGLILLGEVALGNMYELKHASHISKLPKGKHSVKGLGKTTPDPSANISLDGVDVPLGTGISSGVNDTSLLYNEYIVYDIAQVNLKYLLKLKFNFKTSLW

O=c1[nH]c2ccccc2c2ccccc12 [6(5H)-Phenanthridinone]
proliferation of tumor cells (in words) [1]: reduced proliferation of tumor cells
synergy with an alkylating drug (in words) ([1]; co-treatment with an alkylating drug): a marked synergistic effect when tumor cells are co-treated with an alkylating drug
PARP activity (in words) [2]: inhibition of PARP activity

Nc1ccc2c(c1)oc(=O)c1ccccc12 [PARP Inhibitor (line 8)]
IC50 [3]: ~4 µM

NC(=O)c1ccccc1 [benzamide]
effect on cell viability, glucose metabolism, and DNA synthesis (in words) [4]: shown to affect cell viability, glucose metabolism, and DNA synthesis

NC(=O)c1cccnc1 [nicotinamide]
vascular failure in endotoxic shock (in words) [5]: protects against delayed, NO-mediated vascular failure in endotoxic shock

O=C1NCCc2c(OCCCCN3CCCCC3)cccc21 [DPQ, 3,4-dihydro-5-[4-(1-piperidinyl)-butoxy]-1(2H)-isoquinolinone]
cross-sectional infarct area curve (in words) ([6]; 5 mg/kg i.p.): fell approximately halfway between the control and the 10 mg/kg curves
cross-sectional infarct area curve (in words) ([6]; 20 mg/kg i.p.): fell approximately halfway between the control and the 10 mg/kg curves
infarct volume versus control (in words) ([6]; 40 mg/kg i.p.): no significant difference between the control and the 40 mg/kg-treated group; also recorded: less neuroprotective
cross-sectional infarct area curve (in words) ([6]; 40 mg/kg i.p.): close to the control
reduction in infarct volume overall (in words) ([6]; overall, in vivo administration): substantial reduction in infarct volume
PaCO2 ([7]; 5 mg/kg-treated group (n = 7)): 38.0 ± 2.8 mm Hg
PaO2 ([7]; 5 mg/kg-treated group (n = 7)): 126 ± 20 mm Hg
arterial pH ([7]; 5 mg/kg-treated group (n = 7)): 7.36 ± 0.02
MABP Ischemia ([7]; 5 mg/kg-treated group (n = 7), ** p < 0.01 vs steady state): 91 mm Hg
MABP Steady State ([7]; 5 mg/kg-treated group (n = 7)): 78 ± 5 mm Hg
PaCO2 ([7]; 10 mg/kg-treated group (n = 7)): 39.3 ± 5.2 mm Hg
PaO2 ([7]; 10 mg/kg-treated group (n = 7)): 125 ± 16 mm Hg
arterial pH ([7]; 10 mg/kg-treated group (n = 7)): 7.34 ± 0.03
MABP Ischemia ([7]; 10 mg/kg-treated group (n = 7), * p < 0.05 vs steady state): 90 mm Hg
MABP Steady State ([7]; 10 mg/kg-treated group (n = 7)): 80 ± 9 mm Hg
PaCO2 ([7]; 20 mg/kg-treated group (n = 7)): 41.3 ± 2.8 mm Hg
PaO2 ([7]; 20 mg/kg-treated group (n = 7)): 122 ± 14 mm Hg
arterial pH ([7]; 20 mg/kg-treated group (n = 7)): 7.35 ± 0.23
MABP Ischemia ([7]; 20 mg/kg-treated group (n = 7), ** p < 0.01 vs steady state): 91 mm Hg
MABP Steady State ([7]; 20 mg/kg-treated group (n = 7)): 79 ± 10 mm Hg
PaCO2 ([7]; 40 mg/kg-treated group (n = 7)): 39.5 ± 4.7 mm Hg
PaO2 ([7]; 40 mg/kg-treated group (n = 7)): 137 ± 17 mm Hg
arterial pH ([7]; 40 mg/kg-treated group (n = 7)): 7.33 ± 0.24
MABP Ischemia ([7]; 40 mg/kg-treated group (n = 7), * p < 0.05 vs steady state): 88 mm Hg
MABP Steady State ([7]; 40 mg/kg-treated group (n = 7)): 78 ± 4 mm Hg

NC(=O)c1cccc(N)c1 [3-aminobenzamide]
effect on lifespan of cells (in words) ([8]; 10 μM): little or no effect
effect on lifespan of cells (in words) ([8]; 100 μM): appears lengthen the lifespan of the cells
effect on lifespan and proliferative capacity of cells (in words) ([8]; 1 mM): dramatically increases the lifespan and proliferative capacity of the cells
time in culture after which cells still divide ([8]; 1 mM, untreated cells stop after about 40 days): > 60 days
reduction in infarct size in the heart ([9]; 10 mg/kg single injection, one minute before occlusion or reperfusion): 32-42%
colitis outcome (in words) [10]: reduced the inflammatory response and restored the morphology and the energetic status of the distal colon
effect on cell viability, glucose metabolism, and DNA synthesis (in words) [4]: shown to affect cell viability, glucose metabolism, and DNA synthesis

Oc1cccc2c(O)nccc12 [1,5-dihydroxyisoquinoline]
reduction in infarct size ([9]; 1 mg/kg single injection): 38-48%

1-carboxynaphthalene-1-carboxamide
protection against mortality from septic shock [11]: about 40%

CC(=O)Nc1ccc(O)cc1 [acetaminophen, p-hydroxyacetanilid]
plasma component / peak (in words) [12]: In the second hour, as the acetanilid level falls, the metabolite acetaminophen concentration reaches a peak

CC(=O)Nc1ccccc1 [acetanilid, acetanilide]
plasma component / peak (in words) [12]: During the first hour, acetanilid is the principal plasma component
